Assay results as given in US11458140B2, “Annulated glycosidase inhibitors” (Asceneuron SA, priority 2017, dated 2022).

Each compound was assayed against Human O-GlcNAcase (His-Tagged hOGA) (Homo sapiens (Human), UniProt O60502) (assay: Human O-GlcNAcase enzyme inhibition assay (FL-GlcNAc fluorescence)). Conditions: Enzymatic OGA IC50 (M), His-Tagged hOGA 20 nM, FL-GlcNAc 10 μM, 60 min at room temperature, pH 6.5.
Type: biochemical
Method: Then, 20 nM of His-Tagged hOGA and 10 μM of FL-GlcNAc (Fluorescein mono-beta-D-(2-deoxy-2-N-acetyl) glucopyranoside; Marker Gene Technologies Inc, M1485) were added to the 384-well plate for a final volume of 20 μl.

Chain of Human O-GlcNAcase (His-Tagged hOGA) (O60502 whole entry): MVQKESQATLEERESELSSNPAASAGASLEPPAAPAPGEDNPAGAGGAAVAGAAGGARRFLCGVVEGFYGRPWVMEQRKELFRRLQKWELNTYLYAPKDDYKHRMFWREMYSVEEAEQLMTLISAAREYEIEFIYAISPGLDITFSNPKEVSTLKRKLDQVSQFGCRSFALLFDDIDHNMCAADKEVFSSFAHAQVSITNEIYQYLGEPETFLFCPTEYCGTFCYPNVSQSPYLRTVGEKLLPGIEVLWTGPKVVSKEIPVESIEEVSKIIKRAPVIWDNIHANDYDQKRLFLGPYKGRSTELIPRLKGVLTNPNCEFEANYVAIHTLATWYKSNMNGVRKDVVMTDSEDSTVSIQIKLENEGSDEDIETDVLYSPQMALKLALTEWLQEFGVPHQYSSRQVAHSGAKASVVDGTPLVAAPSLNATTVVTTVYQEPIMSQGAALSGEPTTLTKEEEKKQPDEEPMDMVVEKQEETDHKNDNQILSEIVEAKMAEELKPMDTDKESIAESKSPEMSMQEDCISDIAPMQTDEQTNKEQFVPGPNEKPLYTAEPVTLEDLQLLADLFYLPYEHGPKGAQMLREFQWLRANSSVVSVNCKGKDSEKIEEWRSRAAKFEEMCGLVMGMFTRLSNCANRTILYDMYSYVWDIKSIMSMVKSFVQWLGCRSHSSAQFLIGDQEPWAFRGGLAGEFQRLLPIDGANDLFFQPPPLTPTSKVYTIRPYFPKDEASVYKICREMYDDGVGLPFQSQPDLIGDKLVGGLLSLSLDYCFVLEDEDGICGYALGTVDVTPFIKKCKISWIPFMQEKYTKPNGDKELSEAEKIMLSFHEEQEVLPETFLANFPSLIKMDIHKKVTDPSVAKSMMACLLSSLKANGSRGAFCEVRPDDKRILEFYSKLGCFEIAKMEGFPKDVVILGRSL

| Compound | IC50 |
| --- | --- |
| CC(c1ccc2c(c1)OCC2)N1CCn2nc(-c3ccc(S(C)(=O)=O)cc3)nc2C1 (racemic) [Example 17] | 1e-06 to 1e-05 M |
| CC(=O)Nc1nc2c(s1)CN(C(C)c1ccc3c(c1)OCO3)CC2 (racemic) [Example 3, N-(5-(1-(benzo[d][1,3]dioxol-5-yl)ethyl)-4,5,6,7-tetrahydrothiazolo[5,4-c]pyridin-2-yl)acetamide] | 2e-07 to 1e-06 M |

Same assay, conditions: His-Tagged hOGA 20 nM, FL-GlcNAc 10 μM, 60 min at room temperature, pH 6.5; read-out: Enzymatic OGA IC50

| Compound | IC50 |
| --- | --- |
| CC(c1ccc2c(c1)OCC2)N1CCc2c(cnn2-c2ccc(F)cc2)C1 (racemic) [Example 5, 5-(1-(2,3-dihydrobenzofuran-6-yl)ethyl)-1-(4-fluorophenyl)-4,5,6,7-tetrahydro-1H-pyrazolo[4,3-c]pyridine] | 5e-08 to 2e-07 M |
| CC(c1ccc2c(c1)OCC2)N1CCc2c(cnn2Cc2ncccn2)C1 (racemic) [Example 21, 5-(1-(2,3-dihydrobenzofuran-6-yl)ethyl)-1-(pyrimidin-2-ylmethyl)-4,5,6,7-tetrahydro-1H-pyrazolo[4,3-c]pyridine] | 2e-07 to 1e-06 M |
| CC(c1ccc2c(c1)OCC2)N1CCn2nc(-c3cccnc3)nc2C1 (racemic) [Example 18, 7-(1-(2,3-dihydrobenzofuran-6-yl)ethyl)-2-(pyridin-3-yl)-5,6,7,8-tetrahydro-[1,2,4]triazolo[1,5-a]pyrazine] | 1e-06 to 1e-05 M |
| CC(c1ccc2c(c1)OCC2)N1CCc2nn(-c3ccccc3)cc2C1 (single isomer, unassigned) [Example 13] | 5e-08 to 2e-07 M |
| 5-(1-(2,3-dihydrobenzofuran-6-yl)ethyl)-2-(pyridin-2-yl)-4,5,6,7-tetrahydro-2H-pyrazolo[4,3-c]pyridine [Example 10] | 5e-08 to 2e-07 M |
| CC(c1ccc2c(c1)OCC2)N1CCc2nc(-c3ccc(F)cc3)sc2C1 (racemic) [Example 11, 5-(1-(2,3-dihydrobenzofuran-6-yl)ethyl)-2-(4-fluorophenyl)-4,5,6,7-tetrahydrothiazolo[5,4-c]pyridine] | 2e-07 to 1e-06 M |
| CC(c1ccc2c(c1)OCC2)N1CCc2nn(-c3ccc(F)cc3)cc2C1 (racemic) [Example 6, 5-(1-(2,3-dihydrobenzofuran-6-yl)ethyl)-2-(4-fluorophenyl)-4,5,6,7-tetrahydro-2H-pyrazolo[4,3-c]pyridine] | 5e-08 to 2e-07 M |
| CC(c1ccc2c(c1)OCC2)N1CCc2nn(C3CCOCC3)cc2C1 (centres unmarked) [Example 15, 5-(1-(2,3-dihydrobenzofuran-6-yl)ethyl)-1-(tetrahydro-2H-pyran-4-yl)-4,5,6,7-tetrahydro-1H-pyrazolo[4,3-c]pyridine or 5-(1-(2,3-dihydrobenzofuran-6-yl)ethyl)-2-(tetrahydro-2H-pyran-4-yl)-4,5,6,7-tetrahydro-2H-pyrazolo[4,3-c]pyridine] | 1e-06 to 1e-05 M |
| CC(c1ccc2c(c1)OCC2)N1CCc2nn(Cc3ncccn3)cc2C1 (racemic) [Example 20, 5-(1-(2,3-dihydrobenzofuran-6-yl)ethyl)-2-(pyrimidin-2-ylmethyl)-4,5,6,7-tetrahydro-2H-pyrazolo[4,3-c]pyridine] | 2e-07 to 1e-06 M |
| CC(c1ccc2c(c1)OCC2)N1CCn2nc(Nc3ccc(C#N)cn3)nc2C1 (racemic) [Example 19, 6-((7-(1-(2,3-dihydrobenzofuran-6-yl)ethyl)-5,6,7,8-tetrahydro-[1,2,4]triazolo[1,5-a]pyrazin-2-yl)amino)nicotinonitrile] | 1e-06 to 1e-05 M |
| CC(c1ccc2c(c1)OCC2)N1CCc2nn(-c3ccccc3)cc2C1 (racemic) [Example 8, 5-(1-(2,3-dihydrobenzofuran-6-yl)ethyl)-2-phenyl-4,5,6,7-tetrahydro-2H-pyrazolo[4,3-c]pyridine] | 5e-08 to 2e-07 M |
| 5-(1-(2,3-dihydrobenzofuran-6-yl)ethyl)-1-(pyridin-2-yl)-4,5,6,7-tetrahydro-1H-pyrazolo[4,3-c]pyridine [Example 9] | 5e-08 to 2e-07 M |
| CC(c1ccc2c(c1)OCC2)N1CCc2n[nH]cc2C1 (racemic) [Example 4, 5-(1-(2,3-dihydrobenzofuran-6-yl)ethyl)-4,5,6,7-tetrahydro-2H-pyrazolo[4,3-c]pyridine] | 5e-08 to 2e-07 M |
| CC(c1ccc2c(c1)OCC2)N1CCc2c(cnn2-c2ccccc2)C1 (racemic) [Example 7, 5-(1-(2,3-dihydrobenzofuran-6-yl)ethyl)-1-phenyl-4,5,6,7-tetrahydro-1H-pyrazolo[4,3-c]pyridine] | 5e-08 to 2e-07 M |
| CC(c1ccc2c(c1)OCC2)N1CCc2nn(-c3ccccc3)cc2C1 (single isomer, unassigned) [Example 12] | 1e-06 to 1e-05 M |
| CC(c1ccc2c(c1)OCC2)N1CCc2c(cnn2-c2cncnc2)C1 (racemic) [Example 14, 5-(1-(2,3-dihydrobenzofuran-6-yl)ethyl)-1-(pyrimidin-5-yl)-4,5,6,7-tetrahydro-1H-pyrazolo[4,3-c]pyridine] | 2e-07 to 1e-06 M |
| CC(=O)Nc1ncc2c(n1)CCN(C(C)c1ccc3c(c1)OCO3)C2 (racemic) [Example 1, N-(6-(1-(benzo[d][1,3]dioxol-5-yl)ethyl)-5,6,7,8-tetrahydropyrido[4,3-d]pyrimidin-2-yl)acetamide] | 1e-06 to 1e-05 M |
| CC(c1ccc2c(c1)OCO2)N1CCc2ccccc2C1 (racemic) [Example 2, 2-(1-(benzo[d][1,3]dioxol-5-yl)ethyl)-1,2,3,4-tetrahydroisoquinoline] | 2e-07 to 1e-06 M |
